Assay results reported in patent publication US10640534B2 (Agios Pharmaceuticals, Inc., priority 2012, dated 2020).

Test system: U87MG cells
Assay: Cellular assay, inhibition of 2-HG production in U87MG cells
Type: cell-based
Settings: Homo sapiens, U-87 MG, 48 h
How it was run: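 HT1080 or U87MG cells (U87MG kept with 500 ug/mL G418) seeded at 5000 cells/well and treated with compound at 0.2% final DMSO. Incubated 48 h at 37 °C. 2-HG inhibition determined by LC-MS. Viability read by CellTiter-Glo luminescence at 72 h post-dose.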

SMILES	IC50 [nM]
N#Cc1ccnc(N2C(=O)OC[C@H]2C(=O)N(c2cncc(F)c2)[C@H](C(=O)NC2CCC(F)(F)CC2)c2ccccc2Cl)c1 [Compound 132, (S)—N—((S)-1-(2-Chlorophenyl)-2-((4,4-difluorocyclohexyl)amino)-2-oxoethyl)-3-(4-cyanopyridin-2-yl)-N-(5-fluoropyridin-3-yl)-2-oxooxazolidine-4-carboxamide]	< 100
N#Cc1ccnc(N2C(=O)[C@H](O)C[C@H]2C(=O)N(c2cccc(F)c2)[C@H](C(=O)NC2CCC(F)(F)CC2)c2ccccc2Cl)c1 [Compound 121, (2S,4R)—N—((S)-1-(2-Chlorophenyl)-2-((4,4-difluorocyclohexyl)amino)-2-oxoethyl)-1-(4-cyanopyridin-2-yl)-N-(3-fluorophenyl)-4-hydroxy-5-oxopyrrolidine-2-carboxamide]	< 100
N#Cc1ccnc(N2C(=O)CC[C@H]2C(=O)N(c2cc(F)cc(S(N)(=O)=O)c2)[C@H](C(=O)NC2CC(F)(F)C2)c2ccccc2Cl)c1 [Compound 158, (2S)—N-(1-(2-chlorophenyl)-2-(3,3-difluorocyclobutylamino)-2-oxo-ethyl)-1-(4-cyanopyridin-2-yl)-N-(3-fluoro-5-sulfamoylphenyl)-5-oxopyrrolidine-2-carboxamide]	< 100
O=C(NC1CC(F)(F)C1)C(c1ccccc1Cl)N(C(=O)C1CCC(=O)N1c1cnccn1)c1cccc(F)c1 (stereo not shown) [Compound 18]	< 100
N#Cc1ccnc(N2C(=O)OC[C@H]2C(=O)N(c2cccc(F)c2)[C@H](C(=O)NC2CC(F)(F)C2)c2ccccc2Cl)c1 [Compound 77, (S)—N—((S)-1-(2-Chlorophenyl)-2-(3,3-difluorocyclobutylamino)-2-oxoethyl)-3-(4-cyanopyridin-2-yl)-N-(3-fluorophenyl)-2-oxooxazolidine-4-carboxamide]	< 100
N#Cc1cc(C#N)cc(N(C(=O)[C@@H]2CCC(=O)N2c2cc(C#N)ccn2)C(C(=O)NC2CC(F)(F)C2)c2ccccc2Cl)c1 (stereo partly drawn) [Compound 191, (2S)—N-(1-(2-Chlorophenyl)-2-((3,3-difluorocyclobutyl)amino)-2-oxoethyl)-1-(4-cyanopyridin-2-yl)-N-(3,5-dicyanophenyl)-5-oxopyrrolidine-2-carboxamide]	< 100
N#Cc1ccnc(N2C(=O)CC[C@H]2C(=O)N(c2cc(F)cc(F)c2)[C@H](C(=O)NC2CC(F)(F)C2)c2ncccc2Cl)c1 [Compound 198, (S)—N—((S)-1-(3-Chloropyridin-2-yl)-2-(3,3-difluorocyclobutylamino)-2-oxoethyl)-1-(4-cyanopyridin-2-yl)-N-(3,5-difluorophenyl)-5-oxopyrrolidine-2-carboxamide]	< 100
N#Cc1ccnc(N2C(=O)CC[C@H]2C(=O)N(c2cc(F)cc(F)c2)[C@H](C(=O)NC2CC(F)(F)C2)c2c(Cl)cccc2Cl)c1 [Compound 199, (S)-1-(4-Cyanopyridin-2-yl)-N—((S)-1-(2,6-dichlorophenyl)-2-((3,3-difluorocyclobutyl)amino)-2-oxoethyl)-N-(3,5-difluorophenyl)-5-oxopyrrolidine-2-carboxamide]	< 100
N#Cc1ccnc(N2C(=O)CN(C3CC3)C[C@H]2C(=O)N(c2cc(F)cc(F)c2)[C@H](C(=O)NC2CC(F)(F)C2)c2ccccc2Cl)c1 [Compound 106, (S)—N—((S)-1-(2-chlorophenyl)-2-((3,3-difluorocyclobutyl)amino)-2-oxoethyl)-1-(4-cyanopyridin-2-yl)-4-cyclopropyl-N-(3,5-difluorophenyl)-6-oxopiperazine-2-carboxamide]	< 100
Cc1ccc(N2C(=O)CC[C@H]2C(=O)N(c2cccc(F)c2)[C@H](C(=O)NC2CC(F)(F)C2)c2ccccc2Cl)nc1 [Compound 21]	100 to 500
N#Cc1ccnc(N2C(=O)CC[C@H]2C(=O)N(c2cccc(F)c2)[C@H](C(=O)NC2CC(F)(F)C2)c2ccccc2F)c1 [Compound 149, (S)-1-(4-Cyanopyridin-2-yl)-N—((S)-2-((3,3-difluorocyclobutyl)amino)-1-(2-fluorophenyl)-2-oxoethyl)-N-(3-fluorophenyl)-5-oxopyrrolidine-2-carboxamide]	< 100
N#Cc1ccnc(N2C(=O)[C@H](F)C[C@H]2C(=O)N(c2cccc(F)c2)[C@H](C(=O)NC2CCC(F)(F)CC2)c2ccccc2Cl)c1 [Compound 151, (2S,4R)—N—((S)-1-(2-Chlorophenyl)-2-((4,4-difluorocyclohexyl)amino)-2-oxoethyl)-1-(4-cyanopyridin-2-yl)-4-fluoro-N-(3-fluorophenyl)-5-oxopyrrolidine-2-carboxamide]	< 100
CS(=O)(=O)c1cccc(N(C(=O)[C@@H]2CCC(=O)N2c2cc(C#N)ccn2)C(C(=O)NC2CC(F)(F)C2)c2ccccc2Cl)c1 (stereo partly drawn) [Compound 96, (2S)—N-(1-(2-Chlorophenyl)-2-((3,3-difluorocyclobutyl)amino)-2-oxoethyl)-1-(4-cyanopyridin-2-yl)-N-(3-(methylsulfonyl)phenyl)-5-oxopyrrolidine-2-carboxamide]	< 100
O=C(NC1CC(F)(F)C1)[C@H](c1ccccc1Cl)N(C(=O)[C@@H]1CCC(=O)N1c1ccc(F)cn1)c1cccc(F)c1 [Compound 29]	< 100
N#Cc1ccnc(N2C(=O)CC[C@H]2C(=O)N(c2cc(F)cc(F)c2)C(C(=O)NC2CC(F)(F)C2)c2cccc(Cl)c2Cl)c1 (stereo partly drawn) [Compound 195, (2S)-1-(4-Cyanopyridin-2-yl)-N-(1-(2,3-dichlorophenyl)-2-(3,3-difluoro-cyclobutylamino)-2-oxoethyl)-N-(3,5-difluorophenyl)-5-oxopyrrolidine-2-carboxamide]	< 100
CC(C)(O)c1cc(F)cc(N(C(=O)[C@@H]2CCC(=O)N2c2cc(C#N)ccn2)[C@H](C(=O)NC2CC(F)(F)C2)c2ccccc2Cl)c1 [Compound 150, (S)—N—((S)-1-(2-Chlorophenyl)-2-(3,3-difluorocyclobutylamino)-2-oxoethyl)-1-(4-cyanopyridin-2-yl)-N-(3-fluoro-5-(2-hydroxypropan-2-yl)phenyl)-5-oxopyrrolidine-2-carboxamide]	< 100
N#Cc1cccc(N(C(=O)[C@@H]2C[C@@H](O)C(=O)N2c2cc(C#N)ccn2)C(C(=O)NC2CC(F)(F)C2)c2ccccc2Cl)c1 (stereo partly drawn) [Compound 170, (2S,4R)—N-(1-(2-chlorophenyl)-2-((3,3-difluorocyclobutyl)amino)-2-oxoethyl)-N-(3-cyano-phenyl)-1-(4-cyanopyridin-2-yl)-4-hydroxy-5-oxopyrrolidine-2-carboxamide]	< 100
N#Cc1ccnc(N2C(=O)CC[C@H]2C(=O)N(c2cccc3[nH]ncc23)C(C(=O)NC2CC(F)(F)C2)c2ccccc2Cl)c1 (stereo partly drawn) [Compound 152, (2S)—N-(1-(2-Chlorophenyl)-2-((3,3-difluorocyclobutyl)amino)-2-oxoethyl)-1-(4-cyanopyridin-2-yl)-N-(1H-indazol-4-yl)-5-oxopyrrolidine-2-carboxamide]	< 100
N#Cc1ccnc(N2C(=O)OCC[C@H]2C(=O)N(c2cc(F)cc(F)c2)[C@H](C(=O)NC2CC(F)(F)C2)c2ccccc2Cl)c1 [Compound 133, (S)—N—((S)-1-(2-Chlorophenyl)-2-((3,3-difluorocyclobutyl)amino)-2-oxoethyl)-3-(4-cyanopyridin-2-yl)-N-(3,5-difluorophenyl)-2-oxo-1,3-oxazinane-4-carboxamide]	< 100
